In brackets after ≈: the same amount, converted by molar mass.
Legend:
[1] = tested on: Aspergillus fumigatus ATCC 1028; assay: Antifungal activity test (in vitro), MIC; format: cell-based; details: ATCC1028
Method: Minimum inhibitory concentration (MIC) of each of the compounds obtained in Examples 1 to 12 was measured for respective fungi at MOS Pharm Service, by the methods described in Antimicrobial Agents and Chemotherapy, vol. 3, pp. 40-48 (1973), Antimicrobial Agents and Chemotherapy, vol. 33, pp. 215-222 (1989) and Antimicrobial Agents and Chemotherapy, vol. 38, pp. 2362-2368 (1994). The measuring conditions are shown in the following. In this case, Voriconazol was used as a comparative compound.
Aspergillus fumigatus ATCC 1028; Cultured at 28° C. for 2 days using potato dextrose broth, and this was used as a cell suspension.
Each of the compounds of the invention was adjusted to a concentration of 1% by weight using dimethyl sulfoxide (DMSO) and a medium similar to the respective medium used in the above-mentioned fungal culture, having a final concentration of from 0.001 to 100 μg/ml, was prepared. Each of the inoculation cell suspensions prepared by the above-mentioned methods was inoculated onto this agar plate. […] In this connection, Voriconazol was used as the comparative compound C-1.

[2] = tested on: Cryptococcus neoformans ATCC 24067; assay: Antifungal activity test (in vitro), MIC; format: cell-based; details: ATCC24067
Method: (§1) Minimum inhibitory concentration (MIC) of each of the compounds obtained in Examples 1 to 12 was measured for respective fungi at MOS Pharm Service, by the methods described in Antimicrobial Agents and Chemotherapy, vol. 3, pp. 40-48 (1973), Antimicrobial Agents and Chemotherapy, vol. 33, pp. 215-222 (1989) and Antimicrobial Agents and Chemotherapy, vol. 38, pp. 2362-2368 (1994). The measuring conditions are shown in the following. In this case, Voriconazol was used as a comparative compound. Cryptococcus neoformans ATCC 24067, Pityrosporum ovale ATCC 38593; Cultured at 37° C. for 2 day using fluid Sabouraud medium, and this was used as a cell suspension. Each of the compounds of the invention was adjusted to a concentration of 1% by weight using dimethyl sulfoxide (DMSO) and a medium similar to the respective medium used in the above-mentioned fungal culture, having a final concentration of from 0.001 to 100 μg/ml, was prepared. Each of the inoculation cell suspensions prepared by the above-mentioned methods was inoculated onto this agar plate. […] In this connection, Voriconazol was used as the comparative compound C-1.

[3] = tested on: Pityrosporum ovale ATCC 38593; assay: Antifungal activity test (in vitro), MIC; format: cell-based; details: Malassezia furfur, ATCC38593
Method: as §1

[4] = tested on: Microsporum canis ATCC 36299; assay: Antifungal activity test (in vitro), MIC; format: cell-based; details: ATCC36299
Method: as §1, with “Microsporum canis” for “Cryptococcus neoformans”, “36299;” for “24067, Pityrosporum ovale ATCC 38593;”, “30°” for “37°”, “days” for “day”

[5] = tested on: Trichophyton mentagrophytes ATCC 9533; assay: Antifungal activity test (in vitro), MIC; format: cell-based; details: ATCC9533
Method: as §1, with “Trichophyton mentagrophytes” for “Cryptococcus neoformans”, “9533;” for “24067, Pityrosporum ovale ATCC 38593;”, “28°” for “37°”, “3 days” for “2 day”

[6] = tested on: Candida albicans ATCC 10231; assay: Antifungal activity test (in vitro), MIC; format: cell-based; details: ATCC10231
Method: as §1, with “Candida albicans” for “Cryptococcus neoformans”, “10231 and” for “24067, Pityrosporum ovale”, “44858;” for “38593;”, “20 hours” for “2 day”

[7] = tested on: Candida albicans ATCC 44858; assay: Antifungal activity test (in vitro), MIC; format: cell-based; details: ATCC44858
Method: as §1, with “Candida albicans” for “Cryptococcus neoformans”, “10231 and” for “24067, Pityrosporum ovale”, “44858;” for “38593;”, “20 hours” for “2 day”

[8] = tested on: Trichophyton rubrum ATCC 10218; assay: Antifungal activity test (in vitro), MIC; format: cell-based; details: ATCC10218
Method: as §1, with “Trichophyton rubrum” for “Cryptococcus neoformans”, “10218;” for “24067, Pityrosporum ovale ATCC 38593;”, “28°” for “37°”, “3 days” for “2 day”

[9] = tested on: Aspergillus niger ATCC 8740; assay: Antifungal activity test (in vitro), MIC; format: cell-based; details: ATCC8740
Method: as §1, with “Aspergillus niger” for “Cryptococcus neoformans”, “8740;” for “24067, Pityrosporum ovale ATCC 38593;”, “28°” for “37°”, “days” for “day”, “potato dextrose broth,” for “fluid Sabouraud medium,”

C[C@@H](c1ncncc1F)[C@](O)(Cn1cncn1)c1ccc(F)cc1F [C-1, Voriconazol, reference compound]
MIC [1]: 0.3 µg/mL (≈ 0.859 µM) | MIC [2]: 0.1 µg/mL (≈ 0.286 µM) | MIC [3]: 0.3 µg/mL (≈ 0.859 µM) | MIC [4]: 3 µg/mL (≈ 8.59 µM) | MIC [5]: 0.1 µg/mL (≈ 0.286 µM) | MIC [6]: 0.3 µg/mL (≈ 0.859 µM) | MIC [7]: 0.3 µg/mL (≈ 0.859 µM) | MIC [8]: 0.3 µg/mL (≈ 0.859 µM) | MIC [9]: 0.1 µg/mL (≈ 0.286 µM)

Cc1ccc(C2=CCN([C@H](C)[C@](O)(Cn3cncn3)c3ccc(F)cc3F)CC2)nc1C [I-4, (2R,3R)-2-(2,4-difluorophenyl)-3-(5,6-dimethyl-3′,6′-dihydro-2,4′-bipyridin-1′(2′H)-yl)-1-(1,2,4-triazol-1-yl)butan-2-ol]
MIC [1]: 10 µg/mL (≈ 22.8 µM) | MIC [2]: 0.1 µg/mL (≈ 0.228 µM) | MIC [3]: 10 µg/mL (≈ 22.8 µM) | MIC [4]: 1 µg/mL (≈ 2.28 µM) | MIC [5]: 0.3 µg/mL (≈ 0.683 µM) | MIC [6]: 0.3 µg/mL (≈ 0.683 µM) | melting point: 85.5 to 87.5 °C

Cc1ccc(C2=CCN([C@H](C)[C@](O)(Cn3cncn3)c3ccc(F)cc3F)CC2)nc1 [I-5, (2R,3R)-2-(2,4-difluorophenyl)-3-(5-methyl-3′,6′-dihydro-2,4′-bipyridin-1′(2′H)-yl)-1-(1,2,4-triazol-1-yl)butan-2-ol]
MIC [1]: 3 µg/mL (≈ 7.05 µM) | MIC [2]: 0.03 µg/mL (≈ 0.0705 µM) | MIC [3]: 0.003 µg/mL (≈ 0.00705 µM) | MIC [4]: 1 µg/mL (≈ 2.35 µM) | MIC [5]: 0.1 µg/mL (≈ 0.235 µM) | MIC [6]: 0.1 µg/mL (≈ 0.235 µM) | melting point: 115 to 117 °C

C[C@@H](N1CC=C(c2ccc(F)cn2)CC1)[C@](O)(Cn1cncn1)c1ccc(F)cc1F [I-7, (2R,3R)-2-(2,4-difluorophenyl)-3-(5-fluoro-3′,6′-dihydro-2,4′-bipyridin-1′(2′H)-yl)-1-(1,2,4-triazol-1-yl)butan-2-ol]
MIC [1]: 10 µg/mL (≈ 23.3 µM) | MIC [2]: 0.3 µg/mL (≈ 0.699 µM) | MIC [3]: 0.01 µg/mL (≈ 0.0233 µM) | MIC [4]: 10 µg/mL (≈ 23.3 µM) | MIC [5]: 1 µg/mL (≈ 2.33 µM) | MIC [6]: 0.1 µg/mL (≈ 0.233 µM) | melting point: 148 to 150 °C

C[C@@H](Oc1cc(-c2ccccn2)ccn1)[C@](O)(Cn1cncn1)c1ccc(F)cc1F [I-9, (2R,3R)-3-(2,4′-bipyridin-2′-yloxy)-2-(2,4-difluorophenyl)-1-(1,2,4-triazol-1-yl)butan-2-ol]
MIC [1]: 30 µg/mL (≈ 70.9 µM) | MIC [2]: 0.3 µg/mL (≈ 0.709 µM) | MIC [3]: 0.3 µg/mL (≈ 0.709 µM) | MIC [4]: 10 µg/mL (≈ 23.6 µM) | MIC [5]: 10 µg/mL (≈ 23.6 µM) | MIC [6]: 0.3 µg/mL (≈ 0.709 µM) | melting point: 178 to 180 °C

C[C@@H](N1CCC=C(c2ccccn2)C1)[C@](O)(Cn1cncn1)c1ccc(F)cc1F [I-10, (2R,3R)-2-(2,4-difluorophenyl)-3-(5′,6′-dihydro-2,3′-bipyridin-1′(2′H)-yl)-1-(1,2,4-triazol-1-yl)butan-2-ol]
MIC [1]: 100 µg/mL (≈ 243 µM) | MIC [2]: 1 µg/mL (≈ 2.43 µM) | MIC [3]: 0.3 µg/mL (≈ 0.729 µM) | MIC [4]: 100 µg/mL (≈ 243 µM) | MIC [5]: 3 µg/mL (≈ 7.29 µM) | MIC [6]: 3 µg/mL (≈ 7.29 µM) | melting point: 89 to 92 °C

C[C@@H](N1CCCC(c2ccccn2)C1)[C@](O)(Cn1cncn1)c1ccc(F)cc1F (stereo partly drawn) [I-12, (2R,3R)-2-(2,4-difluorophenyl)-3-(3-pyridin-2-ylpiperidin-1-yl)-1-(1,2,4-triazol-1-yl)butan-2-ol]
MIC [1]: 100 µg/mL (≈ 242 µM) | MIC [2]: 10 µg/mL (≈ 24.2 µM) | MIC [3]: 10 µg/mL (≈ 24.2 µM) | MIC [4]: 100 µg/mL (≈ 242 µM) | MIC [5]: 100 µg/mL (≈ 242 µM) | MIC [6]: 0.1 µg/mL (≈ 0.242 µM) | melting point: 75 to 78 °C

From patent US7973056B2, “Triazole derivative or salt thereof” (Fujifilm Finechemicals Co., Ltd, priority 2008, dated 2011)
